Assay results reported in patent US11685744B2, “CDK inhibitors and their use as pharmaceuticals” (Prelude Therapeutics, Incorporated, priority 2020, dated 2023).
Like-named read-outs stand apart in the source and are kept apart here.

Assays:
[1] = Brain-to-plasma ratio (Kp) determination in Sprague-Dawley rats; conditions: male, rat, po, 10 mg/kg
Protocol: The brain-to-plasma ratio (Kp) was determined in male Sprague-Dawley rats (7-9 weeks old) four hours after a single oral dose. Rats were acclimated and given free access to standard rodent chow and water throughout the entire study. Test articles were formulated as a solution at 0.3, 0.4, 0.5, or 1.0 mg/mL in a vehicle comprised of 10:15:75 (v:v:v) dimethylacetamide (DMA):Solutol HS15:water and delivered orally at a rate of 10 mL/kg to three rats to achieve final doses of 3, 4, 5, or 10 mg/kg, respectively. At 4 hours post-dose, blood samples were collected via jugular vein cannula into tubes containing K2EDTA as the anticoagulant and stored on ice. Blood samples were then centrifuged at 4° C. at 6000 rpm for 5 minutes, and the resulting plasma was placed into tubes and stored frozen at −80° C. until analysis. Whole brain samples were also collected at 4 hours post-dose. The weight of each brain was measured and recorded, and samples were immediately stored on dry ice. Brain samples were then transferred to storage at −80° C. until analysis.
Prior to analysis, brain samples were combined with water (4 mL/1 gram of brain) and homogenized. Prior to injection, plasma and brain homogenate samples and standards were prepared for analysis by precipitation with acetonitrile or 1:1 (v:v) methanol:acetonitrile. Samples were then thoroughly mixed, centrifuged at 4000 rpm for 15 minutes, and the resulting supernatant was transferred for analysis. Test article concentrations in plasma and brain homogenate were then determined by LC-MS/MS and quantified against calibration standards prepared to known concentrations in matched blank (analyte-free) biological matrix. The Kp was then determined by dividing the dilution-corrected brain concentration by the plasma concentration from each rat. A brain density of 1 gram/mL was assumed for all calculations.

[2] = tested on: MCF7 adenocarcinoma cell line; experiment: Cell proliferation studies in MCF7 cells (ATP-Lite, 10 days); assay type: cell-based; conditions: read-out: PROLIFERATION_CTG_MCF7 IC50
How it was run: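 Cells were seeded at 100 or 200 per well in DMEM with 10% FBS and dosed in quadruplicate over a 9-point 3-fold dilution. Incubation lasted 10 days at 37 °C, with media exchange and re-dosing on day 5. Viability was read by ATP-Lite luminescence and normalised to background and DMSO, giving IC50.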

CDK4/Cyclin D1 = CDK4/Cyclin D1 (Homo sapiens (Human), UniProt P11802); experiment: CDK4/CyclinD1 enzymatic activity assay (TR-FRET); assay type: biochemical; conditions: ATP 2 mM, read-out: CDK4_D1 IC50
CDK4/Cyclin D1, sequence (P11802 whole entry): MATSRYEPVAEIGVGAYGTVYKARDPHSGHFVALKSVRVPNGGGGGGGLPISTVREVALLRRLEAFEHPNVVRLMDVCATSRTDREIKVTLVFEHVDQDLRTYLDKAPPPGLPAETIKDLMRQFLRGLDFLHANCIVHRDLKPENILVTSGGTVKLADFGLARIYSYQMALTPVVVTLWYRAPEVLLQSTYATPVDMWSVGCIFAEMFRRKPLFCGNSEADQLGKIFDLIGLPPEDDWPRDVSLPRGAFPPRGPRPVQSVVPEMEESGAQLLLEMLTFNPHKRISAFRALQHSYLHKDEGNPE
CDK4/Cyclin D1, sequence (P24385 whole entry partner): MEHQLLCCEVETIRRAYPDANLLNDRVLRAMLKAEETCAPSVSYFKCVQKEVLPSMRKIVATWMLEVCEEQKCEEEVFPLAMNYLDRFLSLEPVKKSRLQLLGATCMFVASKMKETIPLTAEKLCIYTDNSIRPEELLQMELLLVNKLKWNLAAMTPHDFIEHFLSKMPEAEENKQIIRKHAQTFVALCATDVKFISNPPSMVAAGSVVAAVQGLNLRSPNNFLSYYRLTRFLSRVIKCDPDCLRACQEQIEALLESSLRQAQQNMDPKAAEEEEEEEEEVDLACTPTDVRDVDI
How it was run: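 Insect-cell CDK4/Cyclin D1 (1 nM) with ULight-4E-BP1 (100 nM) and 2 mM ATP in HEPES pH 7.4 buffer, preincubated 20 min with compound (9-dose, 3-fold dilutions); 10 mM MgCl2 started the reaction, run 60 min at 37 °C. EDTA/Eu-anti-phospho-4E-BP1 TR-FRET detection; IC50 from 4-parameter Hill fit.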

CDK6/Cyclin D1 = CDK6/Cyclin D1 (Homo sapiens (Human), UniProt Q00534); experiment: CDK6/CyclinD1 enzymatic activity assay (TR-FRET); assay type: biochemical; conditions: ATP 250 μM, read-out: CDK6_D1 IC50
CDK6/Cyclin D1, sequence (Q00534 whole entry): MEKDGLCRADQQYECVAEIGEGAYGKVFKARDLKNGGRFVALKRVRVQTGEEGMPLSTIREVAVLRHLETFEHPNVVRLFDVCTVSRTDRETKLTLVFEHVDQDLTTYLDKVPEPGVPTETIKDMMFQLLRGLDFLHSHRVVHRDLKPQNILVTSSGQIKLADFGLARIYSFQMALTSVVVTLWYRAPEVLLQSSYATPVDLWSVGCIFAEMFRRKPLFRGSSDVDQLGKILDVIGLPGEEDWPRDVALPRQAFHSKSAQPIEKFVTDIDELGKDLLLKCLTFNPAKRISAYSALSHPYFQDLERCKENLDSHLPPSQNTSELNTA
CDK6/Cyclin D1, sequence (P24385 whole entry partner): as the sequence (P24385 whole entry partner) above
Protocol: CDK6/CyclinD1 Enzymatic Activity Assay
The inhibitory activity of compounds was evaluated in vitro using TR-FRET assay with white 384-well low volume microplate (Greiner Bio-One). CDK6/Cyclin D1 catalyzed phosphorylation of peptide in the presence and absence of compounds was measured and used in IC50 determination. Recombinant protein complex CDK6/Cyclin D1, expressed from insect cell, was purchased from ProQinase. Testing compounds were dissolved in DMSO at 0.1 mM and tested in 9-dose IC50 mode. The reaction mixture was prepared by mixing CDK6/Cyclin D1 (1 nM final), ULight-4E-BP1 (100 nM final, Perkinelmer, TRF0128-D), and ATP (250 μM final) in assay buffer (20 mM of HEPES pH 7.4, 1 mM of EGTA, 0.05% BSA, 0.005% Tween 20, and 1 mM TCEP). The compound of interest in DMSO was added to each well in 3-fold serial dilution by dispenser (TECAN D300E). After 20 minutes preincubation at room temperature, 0.1 μL MgCl2 (10 mM final) was added to initiate the reaction. Following a 60 minutes incubation at 37° C., the reaction was stopped by addition of 2 μL of quenching buffer consisting of Lance detection buffer (Perkinelmer CR97-100C), 2 nM LANCE Ultra Europium-anti-P-4E-BP1 (Perkinelmer, TRF0216-D), 10 mM EDTA, and incubate at room temperature for additional 60 minutes in dark. The reaction signal was measured by Envision multimode plate reader (PerkinElmer, 2102-0010). IC50 values were determined by fitting the data to the standard 4 parameters with Hill Slope using GraphPad Prism software.

| Structure (SMILES) | Kp at 4 h ([1]; brain (homogenate) versus plasma) | IC50 ([2]; Homo sapiens, 240 h) [nM] | IC50 (CDK4/Cyclin D1) [nM] | Kp at 4 h ([1]; brain / plasma) | IC50 (CDK6/Cyclin D1) [nM] | IC50 [2] [nM] |
| --- | --- | --- | --- | --- | --- | --- |
| CCN1C2CC1CN(c1ccc(Nc3ncc(F)c(-c4cc5c(=O)n(C)cc(C(C)C)c5s4)n3)nc1)C2 [Example 58, 2-(2-((5-(6-Ethyl-3,6-diazabicyclo[3.1.1]heptan-3-yl)pyridin-2-yl)amino)-5-fluoropyrimidin-4-yl)-7-isopropyl-5-methylthieno[3,2-c]pyridin-4(5H)-one] |  | 20 to 200 | ≤ 20 |  | 20 to 200 |  |
| Cc1nc2cc(-c3nc(Nc4ccc(N5CC(N(C)C)C5)cn4)ncc3F)sc2n1C(C)C [Example 72, N-[5-[3-(Dimethylamino)azetidin-1-yl]pyridin-2-yl]-5-fluoro-4-(2-methyl-3-propan-2-ylthieno[2,3-d]imidazol-5-yl)pyrimidin-2-amine] |  | 20 to 200 | ≤ 20 |  | ≤ 20 |  |
| Cc1c(-c2nc(Nc3ccc(N4CCN(C)CC4=O)cn3)ncc2F)sc2c1nc(C)n2C(C)C [Example 75, 1-[6-[[4-(2,6-Dimethyl-3-propan-2-ylthieno[2,3-d]imidazol-5-yl)-5-fluoropyrimidin-2-yl]amino]pyridin-3-yl]-4-methylpiperazin-2-one] |  | ≤ 20 | ≤ 20 |  | ≤ 20 |  |
| Cc1c(-c2nc(Nc3ccc(N4CCN(CC(F)(F)F)CC4)cn3)ncc2F)sc2c(C(C)C)cn(C)c(=O)c12 [Example 80, 2-(5-Fluoro-2-((5-(4-(2,2,2-trifluoroethyl)piperazin-1-yl)pyridin-2-yl)amino)pyrimidin-4-yl)-7-isopropyl-3,5-dimethylthieno[3,2-c]pyridin-4(5H)-one] |  | 200 to 2000 | 20 to 200 |  | 20 to 200 |  |
| CCN1CC2CC1CN2c1ccc(Nc2ncc(F)c(-c3cc4c(=O)n(C)cc(C(C)C)c4s3)n2)nc1 (stereo not drawn) [Example 81, 2-(2-((5-(5-Ethyl-2,5-diazabicyclo[2.2.1]heptan-2-yl)pyridin-2-yl)amino)-5-fluoropyrimidin-4-yl)-7-isopropyl-5-methylthieno[3,2-c]pyridin-4(5H)-one] |  | 20 to 200 | ≤ 20 |  | ≤ 20 |  |
| Cc1c(-c2nc(Nc3ccc(N4CC5(C4)CN(C(C)C)C5)cn3)ncc2F)sc2c(C(C)C)cn(C)c(=O)c12 [Example 92, 2-(5-Fluoro-2-((5-(6-isopropyl-2,6-diazaspiro[3.3]heptan-2-yl)pyridin-2-yl)amino)pyrimidin-4-yl)-7-isopropyl-3,5-dimethylthieno[3,2-c]pyridin-4(5H)-one] |  | 20 to 200 | ≤ 20 |  | ≤ 20 |  |
| Cc1c(-c2nc(Nc3ccc(C4CCNCC4)cn3)ncc2F)sc2c(C(C)C)cn(C)c(=O)c12 [Example 94, 2-(5-Fluoro-2-((5-(piperidin-4-yl)pyridin-2-yl)amino)pyrimidin-4-yl)-7-isopropyl-3,5-dimethylthieno[3,2-c]pyridin-4(5H)-one] |  | 20 to 200 | ≤ 20 |  | ≤ 20 |  |
| Cc1c(-c2nc(Nc3ccc(C4CN(C)C4)cn3)ncc2F)sc2c1nc(C)n2C(C)C [Example 108, 5-Fluoro-4-(3-isopropyl-2,6-dimethyl-3H-thieno[2,3-d]imidazol-5-yl)-N-(5-(1-methylazetidin-3-yl)pyridin-2-yl)pyrimidin-2-amine] |  | 20 to 200 | ≤ 20 |  | 20 to 200 |  |
| CCN1CC2(C1)CN(c1ccc(Nc3ncc(F)c(-c4cc5c(=O)n(C)nc(C6CN(C(=O)OC(C)(C)C)C6)c5s4)n3)nc1)C2 [Example 109, tert-Butyl 3-(2-(2-((5-(6-ethyl-2,6-diazaspiro[3.3]heptan-2-yl)pyridin-2-yl)amino)-5-fluoropyrimidin-4-yl)-5-methyl-4-oxo-4,5-dihydrothieno[2,3-d]pyridazin-7-yl)azetidine-1-carboxylate] |  | 20 to 200 | ≤ 20 |  | 20 to 200 |  |
| CCN1CCN(c2ccc(Nc3ncc(F)c(-c4sc5c(C(C)C)ccnc5c4C(F)(F)F)n3)nc2)CC1 [Example 121, N-[5-(4-Ethylpiperazin-1-yl)pyridin-2-yl]-5-fluoro-4-[7-propan-2-yl-3-(trifluoromethyl)thieno[3,2-b]pyridin-2-yl]pyrimidin-2-amine] |  | 20 to 200 | ≤ 20 |  | 20 to 200 |  |

Results, then the compound that gave them:

| Kp at 4 h ([1]; brain (homogenate) versus plasma) | IC50 ([2]; Homo sapiens, 240 h) [nM] | IC50 (CDK4/Cyclin D1) [nM] | Kp at 4 h ([1]; brain / plasma) | IC50 (CDK6/Cyclin D1) [nM] | IC50 [2] [nM] | Structure (SMILES) |
| --- | --- | --- | --- | --- | --- | --- |
| 1 to 3 | 20 to 200 | ≤ 20 |  |  |  | CCN1CCC(c2ccc(Nc3ncc(F)c(-c4sc5c(nc(C)n5C5CCC5)c4C)n3)nc2)CC1 [Example 8, 4-(3-Cyclobutyl-2,6-dimethyl-3H-thieno[2,3-d]imidazol-5-yl)-N-(5-(1-ethylpiperidin-4-yl)pyridin-2-yl)-5-fluoro-pyrimidin-2-amine] |
|  | 20 to 200 | ≤ 20 | < 1 |  |  | CCN1CC2(C1)CN(c1ccc(Nc3ncc(F)c(-c4cc5nccc(C(C)(C)O)c5s4)n3)nc1)C2 [Example 21, 2-[2-[2-[[5-(6-Ethyl-2,6-diazaspiro[3.3]heptan-2-yl)pyridin-2-yl]amino]-5-fluoropyrimidin-4-yl]thieno[3,2-b]pyridin-7-yl]propan-2-ol] |
|  | 20 to 200 | ≤ 20 |  | 20 to 200 |  | CCN1CCN(Cc2ccc(Nc3ncc(F)c(-c4sc5c(C6CCCC6)ccnc5c4Cl)n3)nc2)CC1 [Example 30, 4-(3-Chloro-7-cyclopentylthieno[3,2-b]pyridin-2-yl)-N-[5-[(4-ethylpiperazin-1-yl)methyl]pyridin-2-yl]-5-fluoropyrimidin-2-amine] |
|  | 20 to 200 | ≤ 20 |  | ≤ 20 |  | CCN1CC2(C1)CN(c1ccc(Nc3ncc(F)c(-c4sc5c(nc(C)n5C(C)C)c4C)n3)nn1)C2 [Example 53, 6-(6-Ethyl-2,6-diazaspiro[3.3]heptan-2-yl)-N-(5-fluoro-4-(3-isopropyl-2,6-dimethyl-3H-thieno[2,3-d]imidazol-5-yl)pyrimidin-2-yl)pyridazin-3-amine] |
|  | 20 to 200 | ≤ 20 |  | 20 to 200 |  | CCN1CCN(C(=O)c2ccc(Nc3ncc(F)c(-c4cc5c(=O)n(C)cc(C(C)C)c5s4)n3)nc2)CC1 [Example 59, 2-(2-((5-(4-Ethylpiperazine-1-carbonyl)pyridin-2-yl)amino)-5-fluoropyrimidin-4-yl)-7-isopropyl-5-methylthieno[3,2-c]pyridin-4(5H)-one] |
|  | 20 to 200 | ≤ 20 |  | ≤ 20 |  | CCN1CC2(C1)CN(c1ccc(Nc3ncc(F)c(-c4sc5c(c4C)c(=O)ncn5C(C)C)n3)nc1)C2 [Example 62, 6-(2-((5-(6-Ethyl-2,6-diazaspiro[3.3]heptan-2-yl)pyridin-2-yl)amino)-5-fluoropyrimidin-4-yl)-1-isopropyl-5-methylthieno[2,3-d]pyrimidin-4(1H)-one] |
|  | 20 to 200 | ≤ 20 |  | ≤ 20 |  | Cc1c(-c2nc(Nc3ccc(N4CC5(CCN5C)C4)cn3)ncc2F)sc2c1nc(C)n2C(C)C [Example 67, 4-(2,6-Dimethyl-3-propan-2-ylthieno[2,3-d]imidazol-5-yl)-5-fluoro-N-[5-(1-methyl-1,6-diazaspiro[3.3]heptan-6-yl)pyridin-2-yl]pyrimidin-2-amine] |
|  |  | ≤ 20 |  | 20 to 200 | 20 to 200 | CCN1CC2(C1)CN(C(=O)c1ccc(Nc3ncc(F)c(-c4cc5nc(C)n(C(C)C)c5s4)n3)nc1)C2 [Example 71, (6-Dthyl-2,6-diazaspiro[3.3]heptan-2-yl)-[6-[[5-fluoro-4-(2-methyl-3-propan-2-ylthieno[2,3-d]imidazol-5-yl)pyrimidin-2-yl]amino]pyridin-3-yl]methanone] |
